The source of these data is patent US20220023389A1, “VASODILATORS FOR USE IN THE TREATMENT OF A RETINAL ISCHEMIC DISORDER” (University of Copenhagen, priority 2018, published 2022).

Test [1] concerns the target calcitonin receptor-like receptor (CLR) in complex with receptor activity-modifying protein 1 (RAMP1) (Homo sapiens, UniProt O60894+Q16602). The settings on record: removal of residues 1-7; cited from earlier work.
For test [2], the system named is retina (photoreceptors, bipolar cells). Put plainly: Electroretinography (scotopic A-wave and B-wave amplitude) after ET-1 induced retinal ischemia. The class given is in vivo, Sprague dawley rat. The conditions noted are these: day 21, ET-1 induced ischemia right eye (5 μL 500 μM), ET-1 alone/vehicle.
Procedure: Rats were anesthetized with 90 mg/kg ketamine & 10 mg/kg xylazine (i.p). Oxybuprocain 0.4% Anesthetic was applied topically to the eyes.
Guided under a stereoscopic microscope to avoid lens and retinal injury, 5 μl intravitreal injection of 500 uM ET-1 (Phoenix Pharmaceuticals, Inc.) was performed using a digital controller and UltraMicroPump III, with NanoFil 10 μl syringe (WPI) connected to intraoucular injector with a 34 g bevelled needle.
Injection was performed through the sclera, inserted approximately 1 mm posterior to the corneal limbus at a 45° angle to avoid contact with the lens capsule and direct the contents, 1.5 mm into the vitreous chamber, in the right eye (FIG. 1). The needle remained in the vitreous cavity for 30 seconds after injection and was then gently withdrawn. […]
Day 0—ET-1 is administered intravitreally alone or in combination with the current invention. Fundus is recorded before and after injection. […]
After overnight dark adaptation for at least 12 hours, the animals were anesthetized with 90 mg/kg ketamine and 10 mg/kg xylazine delivered by a single intraperitoneal injection. […] ERGs were recorded from both eyes simultaneously with a gold wire electrode loops, placed on the corneal apex, with a drop of saline applied to the corneal surface for hydration during the testing procedure. […] The scotopic A-wave amplitude and B-wave amplitude were recorded and evaluated.

Where no end group is shown, it is not given here.

Sequence of calcitonin receptor-like receptor (CLR) in complex with receptor activity-modifying protein 1 (RAMP1) (Q16602 23-461): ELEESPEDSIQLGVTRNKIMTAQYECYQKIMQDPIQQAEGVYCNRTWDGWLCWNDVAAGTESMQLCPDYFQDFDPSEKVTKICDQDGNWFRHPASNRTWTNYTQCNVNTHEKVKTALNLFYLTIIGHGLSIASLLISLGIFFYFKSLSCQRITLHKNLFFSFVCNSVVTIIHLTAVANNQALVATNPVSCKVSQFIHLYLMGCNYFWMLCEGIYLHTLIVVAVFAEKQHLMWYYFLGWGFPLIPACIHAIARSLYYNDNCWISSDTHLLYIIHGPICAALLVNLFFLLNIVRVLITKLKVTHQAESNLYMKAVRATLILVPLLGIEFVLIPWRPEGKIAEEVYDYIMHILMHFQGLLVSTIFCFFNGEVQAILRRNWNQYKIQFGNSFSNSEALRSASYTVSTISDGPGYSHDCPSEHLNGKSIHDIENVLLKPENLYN
Sequence of calcitonin receptor-like receptor (CLR) in complex with receptor activity-modifying protein 1 (RAMP1) (O60894 27-148): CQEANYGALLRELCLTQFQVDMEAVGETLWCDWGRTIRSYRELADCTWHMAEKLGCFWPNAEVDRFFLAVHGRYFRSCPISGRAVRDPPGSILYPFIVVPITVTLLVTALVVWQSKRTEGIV

For the substance CGRP8-37, in test [1], the “binding potency relative to CGRP (less potent)” value is reported as “approximately 10 fold” and the efficacy result was “lost all efficacy”.
For the substance “Endothelin-1 (CSCSSLMDKECVYFCHLDIIW; ends and bridges not checked; cysteine pairing not given here; UniProt P05305 53-73, looked up) [ET-1, vasoconstrictive peptide injected intravitreally to induce retinal ischemia]”, in test [2], the “avg. max A-wave amplitude” value is 457±40 μV and the “avg. max B-wave amplitude” value came out at 804±188 μV.
